In PMC12796986 (Journal of medicinal chemistry, 2025):
Read-outs that look alike come from different tables or passages of the source.

Target: mpox resolvase (Mpr) (Monkeypox virus, UniProt A0A7H0DNC1)
Test: biochemical
Assay type: biochemical

mpox resolvase (Mpr), sequence (A0A7H0DNC1 whole entry, looked up): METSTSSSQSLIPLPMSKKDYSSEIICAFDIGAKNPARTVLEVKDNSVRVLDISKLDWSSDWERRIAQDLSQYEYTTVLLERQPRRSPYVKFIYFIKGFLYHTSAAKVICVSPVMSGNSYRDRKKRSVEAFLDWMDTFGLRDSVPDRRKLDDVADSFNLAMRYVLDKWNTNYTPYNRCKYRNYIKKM

Compound	IC50 [nM]	other results
3-(5,8-dihydroxy-7-oxo-6-phenyl-7,8-dihydro-1,8-naphthyridin-3-yl) benzamide [4a-12]		fluorescence quenching in the FRET assay: fluorescence quenching
O=c1c(-c2ccccc2)c(O)c2cc(-c3ccc(-c4ccccc4)cc3)cnc2n1O [4a-2, 6-([1,1’-biphenyl]-4-yl)-1,4-dihydroxy-3-phenyl-1,8-naphthyridin-2(1H)-one]	250 ± 10	
COc1ccc2cc(-c3cnc4c(c3)c(O)c(-c3ccccc3)c(=O)n4O)ccc2c1 [4a-4, 1,4-dihydroxy-6-(6-methoxynaphthalen-2-yl)-3-phenyl-1,8-naphthyridin-2(1H)-one]	970 ± 30	
O=c1c(-c2ccccc2)c(O)c2cc(-c3ccccc3F)cnc2n1O [4a-6, 6-(2-fluorophenyl)-1,4-dihydroxy-3-phenyl-1,8-naphthyridin-2(1H)-one]	1100 ± 100	
O=c1c(-c2ccccc2)c(O)c2cc(-c3ccc(C(F)(F)F)cc3)cnc2n1O [4a-7, 1,4-dihydroxy-3-phenyl-6-(4-(trifluoromethyl)phenyl)-1,8-naphthyridin-2(1H)-one]	600 ± 100	
CSc1ccc(-c2cnc3c(c2)c(O)c(-c2ccccc2)c(=O)n3O)cc1 [4a-8, 1,4-dihydroxy-6-(4-(methylthio)phenyl)-3-phenyl-1,8-naphthyridin-2(1H)-one]	370 ± 30	
COc1ccc(OC)c(-c2cnc3c(c2)c(O)c(-c2ccccc2)c(=O)n3O)c1 [4a-9, 6-(2,5-dimethoxyphenyl)-1,4-dihydroxy-3-phenyl-1,8-naphthyridin-2(1H)-one]	1400 ± 100	
O=c1c(-c2ccccc2)c(O)c2cc(-c3ccsc3)cnc2n1O [4a-11, 1,4-dihydroxy-3-phenyl-6-(thiophen-3-yl)-1,8-naphthyridin-2(1H)-one]	1300 ± 300	
O=c1c(-c2ccccc2)c(O)c2cc(Br)cnc2n1O [4a-14, 6-bromo-1,4-dihydroxy-3-phenyl-1,8-naphthyridin-2(1H)-one]	7600 ± 100	
O=c1c(-c2ccccc2)c(O)c2cc(-c3ccc(O)cc3)cnc2n1O [4a-15, 1,4-dihydroxy-6-(4-hydroxyphenyl)-3-phenyl-1,8-naphthyridin-2(1H)-one]	1500 ± 100	
Cc1ccc(-c2cnc3c(c2)c(O)c(-c2ccccc2)c(=O)n3O)cc1 [4a-16, 1,4-dihydroxy-3-phenyl-6-(p-tolyl)-1,8-naphthyridin-2(1H)-one]	1900 ± 400	
CSc1cccc(-c2cnc3c(c2)c(O)c(-c2ccccc2)c(=O)n3O)c1 [4a-17, 1,4-dihydroxy-6-(3-(methylthio)phenyl)-3-phenyl-1,8-naphthyridin-2(1H)-one]	600 ± 100	
O=c1c(-c2ccccc2)c(O)c2cc(-c3ccc4c(c3)OCO4)cnc2n1O [4a-19, 6-(benzo[d][1,3]dioxol-5-yl)-1,4-dihydroxy-3-phenyl-1,8-naphthyridin-2(1H)-one]	1100 ± 100	
N#Cc1ccc(-c2cnc3c(c2)c(O)c(-c2ccccc2)c(=O)n3O)cc1 [4a-20, 4-(5,8-dihydroxy-7-oxo-6-phenyl-7,8-dihydro-1,8-naphthyridin-3-yl) benzonitrile]	1900 ± 200	
NS(=O)(=O)c1ccc(-c2cnc3c(c2)c(O)c(-c2ccccc2)c(=O)n3O)cc1 [4a-21, 4-(5,8-dihydroxy-7-oxo-6-phenyl-7,8-dihydro-1,8-naphthyridin-3-yl)benzenesulfonamide]	1500 ± 100	
O=c1c(-c2ccccc2)c(O)c2cc(-c3ccc(F)cc3F)cnc2n1O [4a-22, 6-(2,4-difluorophenyl)-1,4-dihydroxy-3-phenyl-1,8-naphthyridin-2(1H)-one]		fluorescence quenching in the FRET assay: fluorescence quenching
O=c1c(-c2ccccc2)c(O)c2cc(-c3ccc(C(F)(F)F)cc3C(F)(F)F)cnc2n1O [4a-23, 6-(2,4-bis(trifluoromethyl)phenyl)-1,4-dihydroxy-3-phenyl-1,8-naphthyridin-2(1H)-one]	2700 ± 400	
O=c1c(-c2ccccc2)c(O)c2cc(-c3c(F)cc(F)cc3F)cnc2n1O [4a-24, 1,4-dihydroxy-3-phenyl-6-(2,4,6-trifluorophenyl)-1,8-naphthyridin-2(1H)-one]		fluorescence quenching in the FRET assay: fluorescence quenching
O=c1c(-c2ccccc2)c(O)c2cc(-c3cccnc3)cnc2n1O [4a-25, 1,4-dihydroxy-3-phenyl-6-(pyridin-3-yl)-1,8-naphthyridin-2(1H)-one]	12000 ± 1000	
O=c1c(-c2ccccc2)c(O)c2cc(-c3cncnc3)cnc2n1O [4a-26, 1,4-dihydroxy-3-phenyl-6-(pyrimidin-5-yl)-1,8-naphthyridin-2(1H)-one]	15000 ± 1000	
O=c1c(-c2ccccc2)c(O)c2cc(-c3ccco3)cnc2n1O [4a-27, 6-(furan-2-yl)-1,4-dihydroxy-3-phenyl-1,8-naphthyridin-2(1H)-one]	4000 ± 200	
CC(=O)c1ccc(-c2cnc3c(c2)c(O)c(-c2ccccc2)c(=O)n3O)s1 [4a-28, 6-(5-acetylthiophen-2-yl)-1,4-dihydroxy-3-phenyl-1,8-naphthyridin-2(1H)-one]		fluorescence quenching in the FRET assay: fluorescence quenching
O=c1c(-c2ccccc2)c(O)c2cc(-c3cnc4ccccc4c3)cnc2n1O [4a-29, 1,4-dihydroxy-3-phenyl-6-(quinolin-3-yl)-1,8-naphthyridin-2(1H)-one]		Mpr inhibition: did not inhibit Mpr
O=c1c(-c2ccccc2)c(O)c2cc(C3CC3)cnc2n1O [4a-30, 6-cyclopropyl-1,4-dihydroxy-3-phenyl-1,8-naphthyridin-2(1H)-one]	8000 ± 1000	

Compound	IC50 [nM]	other results
O=c1c(-c2ccccc2)c(O)c2cccnc2n1O [4a-31, 1,4-dihydroxy-3-phenyl-1,8-naphthyridin-2(1H)-one]	17000 ± 1000	
CCc1c(O)c2cc(-c3cccc(-c4ccccc4)c3)cnc2n(O)c1=O [4b-1, 6-([1,1’-biphenyl]-3-yl)-3-ethyl-1,4-dihydroxy-1,8-naphthyridin-2(1H)-one]	800 ± 30	
CCc1c(O)c2cc(-c3ccc4cc(OC)ccc4c3)cnc2n(O)c1=O [4b-4, 3-ethyl-1,4-dihydroxy-6-(6-methoxynaphthalen-2-yl)-1,8-naphthyridin-2(1H)-one]	1600 ± 300	
CCc1c(O)c2cc(-c3ccccc3)cnc2n(O)c1=O [4b-5, 3-ethyl-1,4-dihydroxy-6-phenyl-1,8-naphthyridin-2(1H)-one]	5300 ± 200	
CCc1c(O)c2cc(-c3ccccc3F)cnc2n(O)c1=O [4b-6, 3-ethyl-6-(2-fluorophenyl)-1,4-dihydroxy-1,8-naphthyridin-2(1H)-one]	2100 ± 900	
CCc1c(O)c2cc(-c3ccc(C(F)(F)F)cc3)cnc2n(O)c1=O [4b-7, 3-ethyl-1,4-dihydroxy-6-(4-(trifluoromethyl)phenyl)-1,8-naphthyridin-2(1H)-one]	2500 ± 100	
CCc1c(O)c2cc(-c3ccc(SC)cc3)cnc2n(O)c1=O [4b-8, 3-ethyl-1,4-dihydroxy-6-(4-(methylthio)phenyl)-1,8-naphthyridin-2(1H)-one]	700 ± 100	
CCc1c(O)c2cc(-c3cc(OC)ccc3OC)cnc2n(O)c1=O [4b-9, 6-(2,5-dimethoxyphenyl)-3-ethyl-1,4-dihydroxy-1,8-naphthyridin-2(1H)-one]	1500 ± 100	
CCc1c(O)c2cc(-c3ccc(OC)c(F)c3)cnc2n(O)c1=O [4b-10, 3-ethyl-6-(3-fluoro-4-methoxyphenyl)-1,4-dihydroxy-1,8-naphthyridin-2(1H)-one]	5000 ± 1000	
CCc1c(O)c2cc(-c3ccsc3)cnc2n(O)c1=O [4b-11, 3-ethyl-1,4-dihydroxy-6-(thiophen-3-yl)-1,8-naphthyridin-2(1H)-one]	3900 ± 100	
O=c1cc(O)c2cc(-c3cccc(-c4ccccc4)c3)cnc2n1O [4c-1, 6-([1,1’-biphenyl]-3-yl)-1,4-dihydroxy-1,8-naphthyridin-2(1H)-one]	120 ± 10	
O=c1cc(O)c2cc(-c3ccc(-c4ccccc4)cc3)cnc2n1O [4c-2, 6-([1,1’-biphenyl]-4-yl)-1,4-dihydroxy-1,8-naphthyridin-2(1H)-one]		fluorescence quenching in the FRET assay: direct quenching of fluorophore
O=c1cc(O)c2cc(-c3ccc(Oc4ccccc4)cc3)cnc2n1O [4c-3, 1,4-dihydroxy-6-(4-phenoxyphenyl)-1,8-naphthyridin-2(1H)-one]		fluorescence quenching in the FRET assay: direct quenching of fluorophore
COc1ccc2cc(-c3cnc4c(c3)c(O)cc(=O)n4O)ccc2c1 [4c-4, 1,4-dihydroxy-6-(6-methoxynaphthalen-2-yl)-1,8-naphthyridin-2(1H)-one]	240 ± 30	
O=c1cc(O)c2cc(-c3ccccc3)cnc2n1O [4c-5, 1,4-dihydroxy-6-phenyl-1,8-naphthyridin-2(1H)-one]	1800 ± 10	
O=c1cc(O)c2cc(-c3ccccc3F)cnc2n1O [4c-6, 6-(2-fluorophenyl)-1,4-dihydroxy-1,8-naphthyridin-2(1H)-one]	1000 ± 100	
O=c1cc(O)c2cc(-c3ccc(C(F)(F)F)cc3)cnc2n1O [4c-7, 1,4-dihydroxy-6-(4-(trifluoromethyl)phenyl)-1,8-naphthyridin-2(1H)-one]	470 ± 50	
CSc1ccc(-c2cnc3c(c2)c(O)cc(=O)n3O)cc1 [4c-8, 1,4-dihydroxy-6-(4-(methylthio)phenyl)-1,8-naphthyridin-2(1H)-one]		fluorescence quenching in the FRET assay: direct quenching of fluorophore
COc1ccc(OC)c(-c2cnc3c(c2)c(O)cc(=O)n3O)c1 [4c-9, 6-(2,5-dimethoxyphenyl)-1,4-dihydroxy-1,8-naphthyridin-2(1H)-one]	1600 ± 100	
COc1ccc(-c2cnc3c(c2)c(O)cc(=O)n3O)cc1F [4c-10, 6-(3-fluoro-4-methoxyphenyl)-1,4-dihydroxy-1,8-naphthyridin-2(1H)-one]	2500 ± 500	
O=c1cc(O)c2cc(-c3ccsc3)cnc2n1O [4c-11, 1,4-dihydroxy-6-(thiophen-3-yl)-1,8-naphthyridin-2(1H)-one]		fluorescence quenching in the FRET assay: direct quenching of fluorophore
NC(=O)c1cccc(-c2cnc3c(c2)c(O)cc(=O)n3O)c1 [4c-12, 3-(5,8-dihydroxy-7-oxo-7,8-dihydro-1,8-naphthyridin-3-yl) benzamide]		IC50 (read-out: Mpr IC50): 15000 ± 2000 nM
Cc1ccc(-c2cnc3c(c2)c(O)cc(=O)n3O)cc1F [4c-13, 6-(3-fluoro-4-methylphenyl)-1,4-dihydroxy-1,8-naphthyridin-2(1H)-one]		fluorescence quenching in the FRET assay: direct quenching of fluorophore
O=c1cc(O)c2cc(Br)cnc2n1O [4c-14, 6-bromo-1,4-dihydroxy-1,8-naphthyridin-2(1H)-one]	9000 ± 1000	
